From US8198325B2, “Unsaturated alkyl esters of 5-aminolevulinic acid, their preparation and their use” (Industry Foundation of Chonnam National University, priority 2006, dated 2012)

Columns and labels:
Assay type in all cases: cell-based
[1] = system: Malignant melanoma (TMX 13); assay: Cytotoxicity test (cell survival), MTT assay, TXM 13; conditions: 24 hours
Experimental: (§1) 3. Cytotoxicity Test (Cell Survival Test)
(§2) Cytotoxicity was conducted through an MTT assay (Chemicon, Serologicals Corporation, USA) as follows.
(§3) Cells were seeded at a density of 3×10^4 cells/well in 96-well plates (Nunc Do, Denmark).
(§4) When the cells were at a confluence of about 60˜70%, 24 hours after seeding, the media was exchanged for 100 μl of fresh, serum-free media containing various respective concentrations of ALA or ALA-ester, after which the cells were incubated for an additional 24 hours.
(§5) An MTT solution (0.5 mg/mL) was added in an amount of […] to each well, followed by incubation for 4 hours to form formazan crystals. A color-developing solution (isopropanol with 0.04 N HCl) was added in an amount of […] per well to solubilize the formazan crystals.
(§6) The plates were measured for absorbance at 570 nm using an ELISA reader (EMAX, Molecular Device, USA).
(4) Malignant Melanoma (TMX 13)

[2] = system: Human dermal fibroblast (hF); assay: Cytotoxicity test (cell survival), MTT assay, hF; conditions: 24 hours
Experimental: as §1, §2, §3, §4, §5, §6
(2) Human Dermal Fibroblast (hF)

[3] = system: Human epidermal keratinocyte (HEK); assay: Cytotoxicity test (cell survival), MTT assay, HEK; conditions: 24 hours; for MTT absorbance (OD): 570 nm; for Cell survival Avg (%) ± SD (%): Table 3; for activity at 10 µM / activity at 2000 µM / activity at 50 µM / activity at 100 µM / activity at 500 µM / activity at 1000 µM / activity at 5000 µM: Homo sapiens, Table 2, read-out: Cell survival (% of control C, in brackets); for activity at 10 µM: HEK001, 0.01 mM; for activity at 2000 µM: HEK2, 2 mM; for activity at 50 µM / activity at 100 µM / activity at 500 µM / activity at 1000 µM / activity at 5000 µM: Keratinocyte
Experimental: as §1, §2, §3, §4, §5, §6
(1) Human Epidermal Keratinocyte (HEK)
Cell survival of the human epidermal keratinocytes treated with ALA esters of the present invention and with ALA was compared. The results are summarized in Tables 1 and 2, which are represented in different manners depending on the measurements.

[4] = system: Squamous cell carcinoma (A431); assay: Cytotoxicity test (cell survival), MTT assay, A431; conditions: 24 hours
Experimental: as §1, §2, §3, §4, §5, §6
(3) Squamous Cell Carcinoma (A431)

A431 cells = assay: Fluorescence spectroscopy of PpIX synthesis in A431 cells (FIG. 1); conditions: 4 hours incubation, excitation 405 nm, emission 605 nm
Experimental: 4. Fluorescence Spectroscopy
The synthesis of PpIX, induced by ALA and unsaturated alkyl esters of ALA in cells and skin tissues, was quantified using fluorescence spectroscopy.
The intensity of PpIX was measured on a fluorescence spectrophotometer (Uvikon, model 943) with excitation at 408 nm.
Each cell line was plated at a density of 2×10^5 cells in a 10 cm^2-dish (Falcon), and when the cells reached a confluent state of 70˜80%, serum-free media containing various concentrations (0.001˜1 mM) of ALA or ALA esters was added to the cells, followed by incubation for 4 hours.
After being washed once with PBS, the cells were detached with a 50% methanol solution containing 1M […] (HClO4) and scraped off using a Costar cell scraper.
The cells thus harvested were incubated for 5 min and centrifuged.
The fluorescence of the supernatant thus obtained was determined using a spectrofluorometer with excitation at 405 nm and emission at 605 nm.
The results are graphed in FIGS. 1 and 2.

Row | Structure (SMILES) | Cell survival Avg ± SD (%) ([1]; TXM 13, 0.01 mM) | Cell survival Avg ± SD (%) ([1]; TXM 13, 0.05 mM) | Cell survival Avg ± SD (%) ([1]; TXM 13, 0.1 mM) | Cell survival Avg ± SD (%) ([1]; TXM 13, 0.5 mM) | Cell survival Avg ± SD (%) ([1]; TXM 13, 1 mM) | Cell survival Avg ± SD (%) ([1]; TXM 13, 2 mM) | Cell survival Avg (%) ± SD (%) ([2]; 0.01 mM) | Cell survival Avg (%) ± SD (%) ([2]; 0.05 mM) | Cell survival Avg (%) ± SD (%) ([2]; 0.1 mM) | Cell survival Avg (%) ± SD (%) ([2]; 0.5 mM) | Cell survival Avg (%) ± SD (%) ([2]; 1 mM) | Cell survival Avg (%) ± SD (%) ([2]; 2 mM) | MTT absorbance (OD) ([3]; 0.01 mM) | MTT absorbance (OD) ([3]; 0.05 mM) | Cell survival Avg (%) ± SD (%) ([3]; 0.05 mM) | MTT absorbance (OD) ([3]; 0.1 mM) | Cell survival Avg (%) ± SD (%) ([3]; 0.1 mM) | MTT absorbance (OD) ([3]; 0.5 mM) | Cell survival Avg (%) ± SD (%) ([3]; 0.5 mM) | MTT absorbance (OD) ([3]; 1 mM) | further results
1 | C=CCCOC(=O)CCC(=O)CN [ALA-3, 5-Aminolevulinic acid 3-butenyl ester] | 102.16 ± 10.55% | 95.03 ± 10% | 96.89 ± 7.99% | 90.58 ± 3.8% | 92.34 ± 4.31% | 78.81 ± 6.22% | 114.28 ± 5.4% | 126.76 ± 3.88% | 115.65 ± 6.85% | 110.21 ± 4.21% | 96.59 ± 16.88% | 94.97 ± 9.7% | 2.919 OD | 3.57 OD | 94.01 ± 0.59% | 3.413 OD | 125.58 ± 0.51% | 2.838 OD | 88.14 ± 0.51% | 2.592 OD | Cell survival Avg (%) ± SD (%) ([3]; 0.01 mM): 116.69 ± 0.69%; Cell survival Avg (%) ± SD (%) ([3]; 1 mM): 72.02 ± 3.82%; MTT absorbance (OD) ([3]; 2 mM): 2.185 OD; Cell survival Avg (%) ± SD (%) ([3]; 2 mM): 83.69 ± 4.75%; MTT absorbance (OD) ([3]; 5 mM): 2.101 OD; activity at 10 µM [3]: 83.8%; activity at 2000 µM [3]: 63.1%; activity at 50 µM ([3]; 0.05 mM): 103%; activity at 100 µM ([3]; 0.1 mM): 98.2%; activity at 500 µM ([3]; 0.5 mM): 81.8%; activity at 1000 µM ([3]; 1 mM): 74.9%; activity at 5000 µM ([3]; 5 mM): 60.5%; Cell survival Avg (%) ± SD (%) ([4]; A431, 0.01 mM): 104.08 ± 0.59%; Cell survival Avg (%) ± SD (%) ([4]; A431, 0.05 mM): 105.59 ± 0.51%; Cell survival Avg (%) ± SD (%) ([4]; A431, 0.1 mM): 105.48 ± 0.51%; Cell survival Avg (%) ± SD (%) ([4]; A431, 0.5 mM): 97.46 ± 3.82%; Cell survival Avg (%) ± SD (%) ([4]; A431, 1 mM): 97.65 ± 4.75%; Cell survival Avg (%) ± SD (%) ([4]; A431, 2 mM): 102.85 ± 1.53%
2 | C=CCCCOC(=O)CCC(=O)CN [ALA-4, 5-Aminolevulinic acid 4-pentenyl ester] | 96.3 ± 14.69% | 83.42 ± 12.09% | 72.55 ± 9.25% | 75.01 ± 13.79% | 60.95 ± 8.31% | 49.85 ± 53.24% | 101.13 ± 13.45% | 114.49 ± 17.1% | 103.35 ± 14.09% | 95.81 ± 10.6% | 100.32 ± 6.36% | 93.13 ± 8.07% | 2.8 OD | 2.603 OD | 66.21 ± 0.59% | 2.98 OD | 53.63 ± 0.51% | 2.561 OD | 50.17 ± 0.51% | 2.475 OD | PpIX synthesis compared with ALA (A431 cells): greater PpIX synthesis in A431 cells than did ALA; Cell survival Avg (%) ± SD (%) ([3]; 1 mM): 57.17 ± 1.60%; MTT absorbance (OD) ([3]; 2 mM): 2.407 OD; Cell survival Avg (%) ± SD (%) ([3]; 2 mM): 44.82 ± 3.43%; MTT absorbance (OD) ([3]; 5 mM): 1.354 OD; activity at 10 µM [3]: 77.3%; activity at 2000 µM [3]: 66.3%; activity at 50 µM ([3]; 0.05 mM): 71.6%; activity at 100 µM ([3]; 0.1 mM): 82%; activity at 500 µM ([3]; 0.5 mM): 70.5%; activity at 1000 µM ([3]; 1 mM): 68.3%; activity at 5000 µM ([3]; 5 mM): 37.1%; Cell survival Avg (%) ± SD (%) ([4]; A431, 0.01 mM): 101.68 ± 0.81%; Cell survival Avg (%) ± SD (%) ([4]; A431, 0.05 mM): 102.51 ± 0.54%; Cell survival Avg (%) ± SD (%) ([4]; A431, 0.1 mM): 93.24 ± 2.17%; Cell survival Avg (%) ± SD (%) ([4]; A431, 0.5 mM): 80.91 ± 1.6%; Cell survival Avg (%) ± SD (%) ([4]; A431, 1 mM): 80.11 ± 3.43%; Cell survival Avg (%) ± SD (%) ([4]; A431, 2 mM): 84.57 ± 1.77%
